Inhibition and Inhibition of currents data for two compounds are collected here from PMC12549899 (Nature Communications, 2025).

Positions count from the first letter of the chain named. Values joined by “and” are separate entries in the source; they are usually repeats but may differ in a detail not shown here. Identical values can stand only once.

One assay has as its target T1, DrOTOP1 F277A (Danio rerio, UniProt Q7ZWK8, F277A).
T1 construct: A previously generated codon-optimized full-length DrOTOP1[8]; (UniProt: Q7ZWK8) construct; expressed in transfected cells; host or cells: HEK-293 (CRL-1573, ATCC)
T1 sequence (Q7ZWK8 1-586 F277A): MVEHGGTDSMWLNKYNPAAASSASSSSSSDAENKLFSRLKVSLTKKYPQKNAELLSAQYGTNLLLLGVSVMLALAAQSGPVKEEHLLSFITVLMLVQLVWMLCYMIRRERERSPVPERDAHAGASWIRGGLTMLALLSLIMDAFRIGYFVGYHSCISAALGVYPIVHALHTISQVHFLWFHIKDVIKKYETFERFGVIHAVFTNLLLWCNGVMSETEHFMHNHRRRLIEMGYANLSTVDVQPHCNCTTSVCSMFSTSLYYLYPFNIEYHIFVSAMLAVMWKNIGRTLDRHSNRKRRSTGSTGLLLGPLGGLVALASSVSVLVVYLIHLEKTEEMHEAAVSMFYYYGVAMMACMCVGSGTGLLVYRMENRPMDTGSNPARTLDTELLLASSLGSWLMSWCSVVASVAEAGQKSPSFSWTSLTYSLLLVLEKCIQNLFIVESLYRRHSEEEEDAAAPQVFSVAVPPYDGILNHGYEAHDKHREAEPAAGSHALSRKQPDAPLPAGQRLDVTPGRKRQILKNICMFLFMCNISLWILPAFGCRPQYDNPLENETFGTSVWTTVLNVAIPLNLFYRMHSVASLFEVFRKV
Description: Whole-cell patch-clamp, inhibition of acid-evoked currents, DrOTOP1 F277A. The settings on record: single cells or mean. Format: cell-based, zebrafish (Danio rerio). An excerpt: (§1) To functionally test the significance of the two binding sites identified by cryo-EM, we generated point mutations of DrOTOP1 using the binding poses and conformational changes observed in DrOTOP1_C2.2 to guide our mutations. As per the binding pose that best fits our cryo-EM density, C2.2 forms the following interactions in the outer site: hydrophobic packing against many non-polar residues W126, G130, M133, L134, F271, F570, and M573, and π-stacking with W532 (Fig. 5A). In addition, C2.2 could potentially form H-bonds with E267, if the sidechain is protonated or a water bridge is present, and with H574 if it moves closer (Fig. 5A). Likewise, C2.36 presents a heterocyclic nitrogen that can potentially form a H-bond with E267, similarly, provided a protonation or water bridge is present (Fig. 5B). In addition, C2.36 forms a T-shaped π-stacking interaction with H574, whose sidechain has rotated 90 degrees (compared to DrOTOP1_apo), presumably to accommodate the interaction (Fig. 5B). […]
(§2) Whole-cell patch-clamp recording was performed as previously described[6],[22],[25]. Recordings were made with an Axopatch 200B amplifier, digitized with a Digidata 1322a 16-bit data acquisition system, acquired with pClamp 8.2 and analyzed with Clampfit 10 (Molecular Devices). […]
A general note: The patch-clamp technique gives a direct electrical read-out from membranes.

The target in the next assay is T2, DrOTOP1 A388W (Danio rerio, UniProt Q7ZWK8, A388W).
T2 construct: A previously generated codon-optimized full-length DrOTOP1[8]; (UniProt: Q7ZWK8) construct; expressed in transfected cells; host or cells: HEK-293 (CRL-1573, ATCC)
T2 sequence (Q7ZWK8 1-586 A388W): T1 sequence (Q7ZWK8 1-586 F277A) with A277F, A388W
Kind of assay: Whole-cell patch-clamp, inhibition of acid-evoked currents, DrOTOP1 A388W. The format is cell-based, zebrafish (Danio rerio). The settings on record: single cells.
Source text: as §1, §2

`C=C(C)COc1ccccc1NC(=O)c1nc[nH]c1C` [C2.2] returned an inhibition at 10 µM against DrOTOP1 F277A of 76.2%.

Turning to `O=C(/C(=N\O)c1ccccc1)c1ccccc1` [C11, benzil monoxime], the Inhibition of currents at DrOTOP1 A388W (100 µM) was 53.4353% and 72.6918% and 53.0458% and 57.2816% and 61.0959%. Moreover, 100 µM produced 72.4% inhibition at DrOTOP1 A388W.

As a reminder, the inhibition is how much of the control response was suppressed. Read a low inhibition as a response near the control.
